Results as given in patent publication US10131652B2, “Pyrimidinyloxy benzene derivatives as herbicides” (E. I. DU PONT DE NEMOURS AND COMPANY, priority 2014, dated 2018).

How the values were obtained:
Type in all cases: in vivo
[1] = tested on: barnyardgrass (Echinochloa crus-galli); assay: Test B pre-/postemergence plant response
Method in brief: (§1)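 Steps: plant seeds in loam soil–sand mix; spray soil preemergence, and in parallel spray 2–10 cm one- to two-leaf plants postemergence; hold ~10 days in greenhouse; visually rate injury against untreated controls (0 = no effect, 100 = complete control).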

[2] = tested on: corn (Zea mays); assay: Test B pre-/postemergence plant response
Method in brief: as §1

[3] = tested on: giant foxtail (Setaria faberii); assay: Test B pre-/postemergence plant response
Method in brief: as §1

[4] = tested on: large (Lg) crabgrass (Digitaria sanguinalis); assay: Test B pre-/postemergence plant response
Method in brief: as §1

[5] = tested on: morningglory (Ipomoea spp.); assay: Test B pre-/postemergence plant response
Method in brief: as §1

[6] = tested on: pigweed (Amaranthus retroflexus); assay: Test B pre-/postemergence plant response
Method in brief: as §1

[7] = tested on: velvetleaf (Abutilon theophrasti); assay: Test B pre-/postemergence plant response
Method in brief: as §1

[8] = tested on: wheat (Triticum aestivum); assay: Test B pre-/postemergence plant response
Method in brief: as §1

[9] = tested on: barnyardgrass (Echinochloa crus-galli); assay: Test C flooded paddy test plant response; details: Flood, 250 g ai/ha; scale of 0 to 100 where 0 is no effect and 100 is complete control; 13 to 15 days
Method in brief: (§2)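 Greenhouse paddy assay, 13–15 days. Treatment into 3 cm floodwater over 2-leaf plants; visual 0–100 rating against controls.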

[10] = tested on: ducksalad (Heteranthera limosa); assay: Test C flooded paddy test plant response; details: Flood, 250 g ai/ha; scale of 0 to 100 where 0 is no effect and 100 is complete control; 13 to 15 days
Method in brief: as §2

[11] = tested on: rice (Oryza sativa); assay: Test C flooded paddy test plant response; details: Flood, 250 g ai/ha; scale of 0 to 100 where 0 is no effect and 100 is complete control; 13 to 15 days
Method in brief: as §2

[12] = tested on: small-flower umbrella sedge (Cyperus difformis); assay: Test C flooded paddy test plant response; details: Flood, 250 g ai/ha; scale of 0 to 100 where 0 is no effect and 100 is complete control; 13 to 15 days
Method in brief: as §2

[13] = 125 g ai/ha, postemergence, 0 to 100 scale, 0 no effect, 100 complete control
[14] = Postemergence, 500 g ai/ha, 0 to 100 scale (0 no effect, 100 complete control)
[15] = Preemergence, 125 g ai/ha, 0 to 100 scale where 0 is no effect and 100 is complete control
[16] = Preemergence, 500 g ai/ha, 0 to 100 scale (0 no effect, 100 complete control)
[17] = Preemergence, 500 g ai/ha, 0 to 100 scale where 0 is no effect and 100 is complete control

Row | SMILES | Plant response rating, Barnyardgrass [1, 13] | Plant response rating, Barnyardgrass [1, 14] | Plant response rating, Barnyardgrass [1, 15] | Plant response rating, Corn [2, 13] | Plant response rating, Corn [2, 14] | Plant response rating, Corn [2, 15] | Plant response rating, Foxtail, Giant [3, 13] | Plant response rating, Foxtail, Giant [3, 14] | Plant response rating, Foxtail, Giant [3, 15] | Plant response rating, Crabgrass, Large [4, 13] | Plant response rating, Crabgrass, Large [4, 14] | Plant response rating, Crabgrass, Large [4, 15] | Plant response rating, Morningglory [5, 13] | Plant response rating, Morningglory [5, 14] | Plant response rating, Morningglory [5, 15] | Plant response rating, Pigweed [6, 13] | Plant response rating, Pigweed [6, 14] | Plant response rating, Pigweed [6, 15] | Plant response rating, Velvetleaf [7, 13] | Plant response rating, Velvetleaf [7, 14] | further results
1 | Clc1cnc(Oc2ccccc2-c2nccc(Cl)n2)nc1 [Compound 18] | 0 | 0 | 0 | 0 | 0 | 0 | 0 | 0 | 0 | 0 | 0 | 0 | 0 | 0 | 0 | 0 | 0 | 0 | 0 | 0 | Plant response rating, Barnyardgrass [1, 16]: 0; Plant response rating, Corn [2, 16]: 0; Plant response rating, Foxtail, Giant [3, 16]: 10; Plant response rating, Crabgrass, Large [4, 16]: 20; Plant response rating, Morningglory [5, 16]: 0; Plant response rating, Pigweed [6, 16]: 30; Plant response rating, Velvetleaf [7, 15]: 0; Plant response rating, Velvetleaf [7, 16]: 0; Plant response rating, Wheat [8, 13]: 0; Plant response rating, Wheat [8, 14]: 0; Plant response rating, Wheat [8, 15]: 0; Plant response rating, Wheat [8, 16]: 0; Barnyardgrass plant response rating [9]: 0; Ducksalad plant response rating [10]: 0; Rice plant response rating [11]: 0; Sedge, Umbrella plant response rating [12]: 0
2 | FC(F)(F)c1cccc(-c2ccccc2Oc2ncc(Cl)cn2)n1 [Compound 19] | 0 | 0 | 0 | 0 | 0 | 0 | 0 | 0 | 0 | 0 | 0 | 0 | 0 | 0 | 0 | 0 | 0 | 0 | 0 | 0 | Plant response rating, Barnyardgrass [1, 16]: 0; Plant response rating, Corn [2, 16]: 0; Plant response rating, Foxtail, Giant [3, 16]: 70; Plant response rating, Crabgrass, Large [4, 16]: 50; Plant response rating, Morningglory [5, 16]: 0; Plant response rating, Pigweed [6, 16]: 20; Plant response rating, Velvetleaf [7, 15]: 0; Plant response rating, Velvetleaf [7, 16]: 0; Plant response rating, Wheat [8, 13]: 0; Plant response rating, Wheat [8, 14]: 0; Plant response rating, Wheat [8, 15]: 0; Plant response rating, Wheat [8, 16]: 0; Barnyardgrass plant response rating [9]: 0; Ducksalad plant response rating [10]: 0; Rice plant response rating [11]: 0; Sedge, Umbrella plant response rating [12]: 0
3 | FC(F)(F)c1nccc(-c2ccccc2Oc2ncc(Cl)cn2)n1 [Compound 20] | 0 | 0 | 0 | 0 | 0 | 0 | 0 | 20 | 10 | 0 | 20 | 10 | 0 | 50 | 0 | 40 | 90 | 0 | 0 | 30 | Plant response rating, Barnyardgrass [1, 16]: 0; Plant response rating, Corn [2, 16]: 0; Plant response rating, Foxtail, Giant [3, 16]: 60; Plant response rating, Crabgrass, Large [4, 16]: 70; Plant response rating, Morningglory [5, 16]: 0; Plant response rating, Pigweed [6, 16]: 20; Plant response rating, Velvetleaf [7, 15]: 0; Plant response rating, Velvetleaf [7, 16]: 20; Plant response rating, Wheat [8, 13]: 0; Plant response rating, Wheat [8, 14]: 0; Plant response rating, Wheat [8, 15]: 0; Plant response rating, Wheat [8, 16]: 0; Barnyardgrass plant response rating [9]: 0; Ducksalad plant response rating [10]: 0; Rice plant response rating [11]: 0; Sedge, Umbrella plant response rating [12]: 0
4 | FC(F)(F)c1ccnc(-c2ccccc2Oc2ncc(Br)cn2)c1 [Compound 26] | 0 | 20 | 0 | 10 | 20 | 0 | 0 | 30 | 0 | 10 | 30 | 10 | 10 | 50 | 0 | 30 | 80 | 0 | 10 | 80 | Plant response rating, Barnyardgrass [1, 17]: 30; Plant response rating, Corn [2, 17]: 0; Plant response rating, Foxtail, Giant [3, 17]: 90; Plant response rating, Crabgrass, Large [4, 17]: 100; Plant response rating, Morningglory [5, 17]: 0; Plant response rating, Pigweed [6, 17]: 100; Plant response rating, Velvetleaf [7, 15]: 10; Plant response rating, Velvetleaf [7, 17]: 80; Plant response rating, Wheat [8, 13]: 0; Plant response rating, Wheat [8, 14]: 10; Plant response rating, Wheat [8, 15]: 0; Plant response rating, Wheat [8, 17]: 0; Barnyardgrass plant response rating [9]: 0; Ducksalad plant response rating [10]: 0; Rice plant response rating [11]: 0; Sedge, Umbrella plant response rating [12]: 0
5 | FC(F)(F)c1ccc(-c2ccccc2Oc2ncc(Br)cn2)nc1 [Compound 28] | 0 | 50 | 0 | 0 | 20 | 0 | 20 | 40 | 30 | 20 | 40 | 40 | 0 | 30 | 0 | 30 | 100 | 40 | 40 | 100 | Plant response rating, Barnyardgrass [1, 17]: 60; Plant response rating, Corn [2, 17]: 0; Plant response rating, Foxtail, Giant [3, 17]: 90; Plant response rating, Crabgrass, Large [4, 17]: 100; Plant response rating, Morningglory [5, 17]: 0; Plant response rating, Pigweed [6, 17]: 80; Plant response rating, Velvetleaf [7, 15]: 0; Plant response rating, Velvetleaf [7, 17]: 60; Plant response rating, Wheat [8, 13]: 0; Plant response rating, Wheat [8, 14]: 0; Plant response rating, Wheat [8, 15]: 0; Plant response rating, Wheat [8, 17]: 0; Barnyardgrass plant response rating [9]: 0; Ducksalad plant response rating [10]: 0; Rice plant response rating [11]: 0; Sedge, Umbrella plant response rating [12]: 0
6 | Cn1nc(C(F)(F)F)cc1-c1ccccc1Oc1ncc(Cl)cn1 [Compound 29] | 0 | 0 | 0 | 0 | 0 | 0 | 0 | 0 | 0 | 0 | 10 | 10 | 0 | 0 | 0 | 0 | 10 | 20 | 0 | 0 | Plant response rating, Barnyardgrass [1, 17]: 0; Plant response rating, Corn [2, 17]: 0; Plant response rating, Foxtail, Giant [3, 17]: 10; Plant response rating, Crabgrass, Large [4, 17]: 30; Plant response rating, Morningglory [5, 17]: 0; Plant response rating, Pigweed [6, 17]: 50; Plant response rating, Velvetleaf [7, 15]: 0; Plant response rating, Velvetleaf [7, 17]: 0; Plant response rating, Wheat [8, 13]: 0; Plant response rating, Wheat [8, 14]: 0; Plant response rating, Wheat [8, 15]: 0; Plant response rating, Wheat [8, 17]: 0; Barnyardgrass plant response rating [9]: 0; Ducksalad plant response rating [10]: 0; Rice plant response rating [11]: 0; Sedge, Umbrella plant response rating [12]: 0
